The nature of this data set: method code SF-GLC, from DOI: 10.1016/0048-3575(78)90090-1.
For `CC(=O)Oc1c(Cl)c(Cl)c(Cl)c(Cl)c1Cl`, the logP is 3.4. The result for `OC1C(Cl)C(Cl)C(Cl)C(Cl)C1Cl` (stereo not given) reads 2.54; that for `ClC1C(Cl)C(Cl)C(Br)C(Cl)C1Cl` (stereo not given), 3.74; that for `COC1C(Cl)C(Cl)C(Cl)C(Cl)C1OC` (stereo not given), 2.55. With `COC1C(Cl)C(Cl)C(Cl)C(OC)C1OC` (stereo not given), the lipophilicity (logP) is 1.87. Under `CCOC1C(Cl)C(Cl)C(Cl)C(Cl)C1Cl` (stereo not given) stands 3.69; under `COC1CC(Cl)C(Cl)C(Cl)C1Cl` (stereo not given), 2.99. The result for `CC1C(Cl)C(Cl)C(Cl)C(Cl)C1Cl` (stereo not given) reads 4.04; that for `COC1C(Cl)C(Cl)C(OC)C(Cl)C1Cl` (stereo not given), 3.15.

`ClC1CC(Cl)C(Cl)C(Cl)C1Cl` (stereo not given) had a log partition coefficient (logP) of 3.53.

Consider `ClC1C(Cl)C(Br)C(Cl)C(Cl)C1Br` (stereo not given), for which the logP came to 3.98. Under `FC1C(Cl)C(Cl)C(Cl)C(Cl)C1Cl` (stereo not given) stands 3.19; under `OCC1C(Cl)C(Cl)C(Cl)C(Cl)C1Cl` (stereo not given), 2.94. The compound `FC1C(Cl)C(Cl)C(Cl)C(Cl)C1Br` (stereo not given) returned a logP of 3.28. In the case of `COC1C(Cl)C(Cl)C(Cl)C(Cl)C1Cl` (stereo not given), the logP amounted to 3.14. The logP values of the last two compounds are within 0.2 log units of each other. Under `CC1C(Cl)C(Cl)C(C)C(Cl)C1Cl` (stereo not given) stands 4.4. The result for `ClC1C(Cl)C(Cl)C(I)C(Cl)C1Cl` (stereo not given) reads 3.96; that for `ClC1C(Cl)C(Cl)C(Br)C(Br)C1Cl` (stereo not given), 3.88; that for `ClC1CC(Cl)C(Cl)CC1Cl` (stereo not given), 2.82. Under `FC(F)(F)COC1C(Cl)C(Cl)C(Cl)C(Cl)C1Cl` (stereo not given) stands 4.06.

One may read the logP as a log measure of how a compound divides between an organic and an aqueous phase. High values mean a more lipophilic compound, low ones a more hydrophilic compound.
